Key:
[1] = test system: solid and non-solid tumor cell lines; conditions: cited from earlier work
Aqueous solubility = type: physicochemical
Text: These characteristics challenge the ordinary skills and conventional methodologies in this technology, particularly when it comes to the preparation of formulations of these compounds that are to be readily used for medical purposes. Such uses preferably rely on formulations whose characteristics include one or more of the following: biocompatibility, stability under ambient conditions, or under conditions that are as near to ambient conditions as possible, with a shelf life that is as long as possible, and easy reconstitutability to form reconstituted solutions that are as stable under ambient, or near ambient conditions, for as long as possible.

[2] = test system: xenografted human cell lines in mice, such as breast and prostate; conditions: several xenografted human cell lines in mice; cited from earlier work

Row | Compound | in vitro activity [1] | aqueous solubility (Aqueous solubility) | in vivo activity [2]
1 | COc1c(C)cc2c(c1O)[C@@H]1[C@@H]3Cc4c(OC(C)=O)c(C)c5c(c4[C@H](CNC(=O)/C=C/c4cccc(C(F)(F)F)c4)N3[C@@H](O)[C@H](C2)N1C)OCO5 [PM00104] | significant in vitro activity | limited aqueous solubility | significant in vivo activity
2 | COc1c(C)cc2c(c1O)[C@@H]1[C@@H]3Cc4c(OC(C)=O)c(C)c5c(c4[C@H](COC(=O)/C=C/c4ccccc4)N3[C@@H](O)[C@H](C2)N1C)OCO5 [PM00121] |  | limited aqueous solubility | 

From patent publication US9192568B2, “Formulations comprising jorumycin-, renieramycin-, safracin- or saframycin-related compounds for treating proliferative diseases” (Pharma Mar, S.A., priority 2005, dated 2015)
